The text below walks through data of patent US20130178536A1, “SUBSTITUTED CIS- AND TRANS-STILBENES AS THERAPEUTIC AGENTS” (STC.UNM, priority 2006, published 2013).

Common to all, as to assay type: in vivo, mouse
The subject of assay [1] is Aβ plaques. Nature of the assay: Areal density of Aβ plaques in brains of AD transgenic mice (Thioflavin-S histology). The note with it: for Plaque areal density: 100 ppm in diet, 1 year, mean±S.E.M., p<0.001, untreated 79.8±2.4; for Decrease in plaque areal density: vs untreated transgenic mice. The text has this: (§1) B6C3 transgenics (Jackson Laboratory) were used. These double transgenic mice express a chimeric mouse/human amyloid precursor protein (Mo/HuAPP695swe) and a mutant human presenilin 1 (PS1-dE9) both directed to CNS neurons. Both mutations are associated with early-onset Alzheimer's disease. The “humanized” Mo/HuAPP695swe transgene allows the mice to secrete a human Ab peptide. The included Swedish mutations (K595N/M596L) elevate the amount of Ab produced from the transgene by favoring processing through the beta-secretase pathway. Transgenic mice develop beta-amyloid deposits in brain by six to seven months of age. These animals also display a slight alteration in their tail phenotype that is believed to be due to the mixed genetic background of the strain and is not related to transgene expression. These mice are useful in studies of neurological disorders of the brain, specifically Alzheimer's disease, amyloid plaque formation.
(§2) Female B6C3 transgenics were used. Animals were housed 5/cage and fed ad libitum. Groups included controls, RV groups, compound 1 groups and compound 2 groups. Each group was comprised of 15 animals. Diets contained standard dyes to provide different colors to each diet to avoid confusion during the 12 months feeding.
(§3) Transgenic mice carrying mutated APP and presenilin-1 were fed this diet. It was observed early on that compound 2a (4cc) was toxic. Therefore, it was discontinued in the study. […] Twenty four hrs before sacrifice, SPIONs were injected via the tail vein. […] The MRI conspicuity of the plaques increased from a Z-score (signal to noise ratio) of 4.6±0.6 to 8.0±0.1 when the plaque Z-score was compared in control AD mice with AD mice treated with nanoparticles. The number of MRI-visible plaques per brain increased from 355±39 in the control AD mice, to 668±52 in the SPION treated mice.
Paraffin embedded brain sections were rehydrated by progressively immersing them in Hemo-De, 95% EtOH, 70% EtOH and finally 0.1M PBS. […] Images were taken with a Zeiss Axioskop 2 equipped with a Zeiss AxioCam and a Prior Lumen 200 fluorescence lamp (Cancer Center Fluorescence Microscopy Facility, University of New Mexico, Albuquerque, N. Mex., USA, http://hsc.unm.edu/crtc/microscopy/). […]
(§4) Plaque number and area were measured on the CCD images of the IHC brain sections with the aid of ImageJ software (NIH) by thresholding and conversion of the images to binary images. The radial sizes of the plaques were measured using ImageJ on Thioflavin-S stained fluorescence micrographs of brain sections. The radial distributions of activated microglia were measured on spatially calibrated fluorescence micrographs of Iba-1 stained brain sections using the center of the plaque as the local point of reference and the center of the DAPI-stained microglial nucleus as the endpoint. […]

Assay [2] has as its system Aβ plaques. As to the kind of experiment: MRI-detected plaques in brains of AD transgenic mice with anti-APP SPIONs. The note with it: for Decline in number of plaques per brain: 100 ppm in diet, 1 year, MRI.
Source text: as §1, §2
Transgenic mice carrying mutated APP and presenilin-1 were fed this diet. It was observed early on that compound 2a (4cc) was toxic. Therefore, it was discontinued in the study. […] Twenty four hrs before sacrifice, SPIONs were injected via the tail vein. […]
Pilot MRI studies of this line of transgenic mice were carried out at three magnetic field strengths: at 4.7 Tesla, at the UNM BRaIN Imaging Center, and at 9.4 and 16.4 Tesla at the Center for Magnetic Resonance Research at the University of Minnesota. […] One hundred ninety two MRI slices were analyzed by counting plaques in each slice, and by computing the statistical significance of the intensity in the hypointense plaque core versus the noise level in the surrounding tissue. […]

The test system of assay [3] is activated microglia. As to the kind of experiment: Activated microglia density and radial distribution in brains of AD transgenic mice (Iba-1 staining). The settings on record: for Areal density of activated microglia: 100 ppm in diet, 1 year, mean±S.E.M., p<0.001, untreated 86.1±2.8; for Decrease in areal density of activated microglia: vs untreated transgenic mice.
Source text: as §1, §2, §3
Paraffin embedded brain sections were rehydrated by progressively immersing them in Hemo-De, 95% EtOH, 70% EtOH and finally 0.1M PBS. Antigens were retrieved by placing the slides in 6.0 pH 0.01 M sodium citrate buffer with heating to 90° C. for 20 minutes. After cooling to r.t., the slides were stained with Thioflavin-S as above. After rehydrating with 0.1M PBS for 5 minutes, the slides were blocked with 0.1M PBS containing 6% normal donkey serum for 45 minutes and then incubated overnight with rabbit anti-Iba-1, diluted 1:400, at 4° C. in a humidity chamber. The next day the slides were washed three times with 0.1M PBS. The secondary antibody, rhodamine-conjugated donkey anti-rabbit IgG, was diluted with 0.5% BSA in 0.1M PBS to 1:200 under light-restricted conditions. 100 μl of this secondary antibody solution was applied to each brain slice for 2 h in a light-tight container at r.t. The slides were then rinsed three times with 0.1M PBS and twice with dd water. Vectashield with DAPI was applied and the slides were cover-slipped and sealed for imaging. Images were taken with a Zeiss Axioskop 2 equipped with a Zeiss AxioCam and a Prior Lumen 200 fluorescence lamp (Cancer Center Fluorescence Microscopy Facility, University of New Mexico, Albuquerque, N. Mex., USA, http://hsc.unm.edu/crtc/microscopy/). Images were processed using Slidebook (Denver, Colo.). Confocal images were taken and processed using Zen (Carl Zeiss MicroImaging GmbH, Germany).
as §4

As to `COc1ccc(/C=C/c2ccccc2F)cc1` [1a (LD-55)], in assay [1], the Plaque areal density is reported as 55.4±4.8 plaques/mm^2 and the “Decrease in plaque areal density” value is 31%. Also, the “Decline in number of plaques per brain” value in assay [2] was 3-6 fold. In addition, the “Total number of MRI-determined plaques” value in assay [2] (fed over entire life span, anti-APP SPIONs for 24 hours, SPION control n=668) is 209. Moreover, in assay [3], the Proximal halo of microglia around plaques was 24 µm, the “Areal density of activated microglia” value came out at 44.2±3.2 microglia/mm^2 and the “Decrease in areal density of activated microglia” value is 49%.

On to `Oc1ccc(/C=C/c2cc(O)cc(O)c2)cc1` [Resveratrol, reference compound], for which, in assay [1], the Plaque areal density is on record as 51.8±2.4 plaques/mm^2 and the “Decrease in plaque areal density” value is 35%. Moreover, the “Decline in number of plaques per brain” value in assay [2] is 3-6 fold. In addition, in assay [3], the Proximal halo of microglia around plaques turned out to be 17 µm, the “Areal density of activated microglia” value was found to be 34.7±1.8 microglia/mm^2 and the “Decrease in areal density of activated microglia” value came out at 60%.
